Assay results published in patent US11578083B2, “Pyrimidinium compounds and their mixtures for combating animal pests” (BASF SE, priority 2017, dated 2023).

Assays:
Format in all cases: in vivo
[1] = system: vetch aphid (Megoura viciae); test: Test 7 vetch aphid, leaf disks (mixtures); settings: use rate 2500 ppm
Experimental: For evaluating control of vetch aphid (Megoura viciae) through contact or systemic means the test unit consisted of 24-well-microtiter plates containing broad bean leaf disks.
The compounds or mixtures were formulated using a solution containing 75% water and 25% DMSO. Concentrations of formulated compounds or mixtures were sprayed onto the leaf disks at 2.5 μl, using a custom built micro atomizer, at two replications.
(§1) For experimental mixtures in these tests identical volumes of both mixing partners at the desired concentrations respectively, were mixed together.
After application, the leaf disks were air-dried and 5-8 adult aphids placed on the leaf disks inside the microtiter plate wells. The aphids were then allowed to suck on the treated leaf disks and incubated at 23±1° C., 50±5% RH for 5 days. Aphid mortality and fecundity was then visually assessed.

[2] = system: boll weevil (Anthonomus grandis); test: Test 9 boll weevil, insect diet with eggs (mixtures)
Experimental: (§2) For evaluating control of boll weevil (Anthonomus grandis) the test unit consisted of 24-well-microtiter plates containing an insect diet and 20-30 A. grandis eggs.
(§3) The compounds or mixtures were formulated using a solution containing 75% water and 25% DMSO. Concentrations of formulated compounds or mixtures were sprayed onto the insect diet at 20 μl, using a custom built micro atomizer, at two replications.
as §1
(§4) After application, microtiter plates were incubated at 23±1° C., 50±5% RH for 5 days. Egg and larval mortality was then visually assessed.

[3] = system: boll weevil (Anthonomus grandis); test: Test 3 boll weevil, insect diet with eggs (mixtures)
Experimental: as §2, §3, §1, §4

[4] = system: green peach aphid (Myzus persicae); test: Test 2 green peach aphid, artificial diet (mixtures)
Text: (§5) For evaluating control of green peach aphid (Myzus persicae) through systemic means the test unit consisted of 96-well-microtiter plates containing liquid artificial diet under an artificial membrane.
(§6) The compounds or mixtures were formulated using a solution containing 75% water and 25% DMSO. Concentrations of formulated compounds or mixtures were pipetted into the aphid diet, using a custom built pipetter, at two replications.
as §1
(§7) After application, 5-8 adult aphids were placed on the artificial membrane inside the microtiter plate wells. The aphids were then allowed to suck on the treated aphid diet and incubated at 23±1° C., 50±5% RH for 3 days. Aphid mortality and fecundity was then visually assessed.

[5] = system: tobacco budworm (Heliothis virescens); test: Test 4 tobacco budworm, insect diet with eggs (mixtures)
Experimental: (§8) For evaluating control of tobacco budworm (Heliothis virescens) the test unit consisted of 96-well-microtiter plates containing an insect diet and 15-25 H. virescens eggs.
The compounds or mixtures were formulated using a solution containing 75% water and 25% DMSO. Concentrations of formulated compounds or mixtures were sprayed onto the insect diet at 10 μl, using a custom built micro atomizer, at two replications.
as §1
(§9) After application, microtiter plates were incubated at 28±1° C., 80±5% RH for 5 days. Egg and larval mortality was then visually assessed.

[6] = system: Cowpea aphid (Aphis craccivora); test: B.3 Cowpea aphid leaf disk test; settings: foliar, 120 h, Cowpea aphid, Dose 1 ppm, 5 days, read-out: Mortality %
Experimental: If not otherwise specified, the test solutions are prepared as follows:
The active compound is dissolved at the desired concentration in a mixture of 1:1 (vol:vol) distilled water: acetone. The test solution is prepared at the day of use.
B.3 Cowpea aphid (Aphis craccivora):
For evaluating control of Cowpea aphid through contact or systemic means the test unit consists of 24-well-microtiter plates containing broad bean leaf disks.
The compounds are formulated using a solution containing 75% v/v water and 25% v/v DMSO. Different concentrations of formulated compounds are sprayed onto the leaf disks at 2.5 μl, using a custom built micro atomizer, at two replications.
After application, the leaf disks are air-dried and 5-8 adult aphids placed on the leaf disks inside the microtiter plate wells. The aphids are then allowed to suck on the treated leaf disks and incubated at about 23±1° C. and about 50±5% relative humidity for 5 days. Aphid mortality and fecundity is then visually assessed.

[7] = system: Rice brown plant hopper (Nilaparvata lugens); test: B.2 Rice brown plant hopper, sprayed rice seedlings; settings: Rice brown plant hopper, Dose 1 ppm, after 72 hours, read-out: Mortality %
Experimental: B.2 Rice Brown Plant Hopper (Nilaparvata lugens):
(§10) Rice seedlings are cleaned and washed 24 hours before spraying. The active compounds are formulated in 50:50 acetone:water (vol:vol) and 0.1% vol/vol surfactant (EL 620) is added. Potted rice seedlings are sprayed with 5 ml test solution, air dried, placed in cages and inoculated with 10 adults. Treated rice plants are kept at about 28-29° C. and relative humidity of about 50-60%. Percent mortality is recorded after 72 hours.

[8] = system: Thrips (Dichromothrips corbetti); test: B.4 Thrips floral-immersion test; settings: Dose 10 ppm, 72 hours after treatment, read-out: Mortality %
Experimental: B.4 Thrips (Dichromothrips Corbetti):
Dichromothrips corbetti adults used for bioassay are obtained from a colony maintained continuously under laboratory conditions. For testing purposes, the test compound is diluted in a 1:1 mixture of acetone:water (vol:vol), plus 0.01% vol/vol Alkamuls® EL 620 surfactant.
Thrips potency of each compound is evaluated by using a floral-immersion technique. Plastic petri dishes are used as test arenas. All petals of individual, intact orchid flowers are dipped into treatment solution and allowed to dry. Treated flowers are placed into individual petri dishes along with about 20 adult thrips. The petri dishes v then covered with lids. All test arenas are held under continuous light and a temperature of about 28° C. for duration of the assay. After 3 days, the numbers of live thrips are counted on each flower, and along inner walls of each petri dish. The percent mortality is recorded 72 hours after treatment.

[9] = system: Rice green leafhopper (Nephotettix virescens); test: B.1 Rice green leafhopper, sprayed rice seedlings; settings: Rice green leafhopper, Dose 1 ppm, after 72 hours, read-out: Mortality %
Experimental: B.1 Rice Green Leafhopper (Nephotettix virescens):
as §10, with “(vol:vol),” for “(vol:vol)”

[10] = system: green peach aphid (Myzus persicae); test: Test 8 green peach aphid, artificial diet (mixtures)
Text: as §5, §6, §1, §7

[11] = system: tobacco budworm (Heliothis virescens); test: Test 10 tobacco budworm, insect diet with eggs (mixtures); settings: use rate 2500 ppm
Experimental: as §8
The compounds or mixtures were formulated using a solution containing 75% water and 25% DMSO. Different concentrations of formulated compounds or mixtures were sprayed onto the insect diet at 10 μl, using a custom built micro atomizer, at two replications.
as §1, §9

[12] = system: Greenhouse Whitefly (Trialeurodes vaporariorum); test: Test 11 Greenhouse Whitefly, egg plant leaf disk (mixtures); settings: use rate 2500 ppm
Experimental: For evaluating control of Greenhouse Whitefly (Trialeurodes vaporariorum) the test unit consisted of 96-well-microtiter plates containing a leaf disk of egg plant leaf disk with white fly eggs.
The compounds or mixtures were formulated using a solution containing 75% water and 25% DMSO. Different concentrations of formulated compounds or mixtures were sprayed onto the insect diet at 2.5 μl, using a custom built micro atomizer, at two replications.
as §1
After application, microtiter plates were incubated at 23±1° C., 65±5% RH for 6 days. Mortality of hatched crawlers was then visually assessed.

[13] = system: brown planthopper (Nilaparvata lugens); test: Test 6 brown planthopper, foliar spray (mixtures); settings: Table 6.1, after 7 days, solo application Pymetrozine, use rate 300 ppm
Experimental: For evaluating control of brown planthopper (Nilaparvata lugens) by foliar spray method. Clean potted rice seedlings with upper leaf portion cut are properly labeled. Placed three potted rice plants per treatment concentration/combination on top of the rotating disc (270 mm) and sprayed with the 12 mL spray solution. Treated plants are allowed to air-dry in the laboratory for about an hour. After air-drying, covered each treated rice plant. Each treated plant was infested with brown planthoppers using a suction vacuum. Plants are maintained at 27° C.±1° C., 50±5% RH and 24 hours light conditions in a holding room. Percent mortality is recorded 7 days after infestation by counting both the dead and alive brown planthoppers on the plants and on the water.

With `Cc1nn(C)c(Cl)c1C(=O)Nc1cccc2c1C(C)OC2(C)C` (stereo not shown) [Furametpyr, furametpyr, reference compound] the Average control % ([1]; Table 7.1, solo application Furametpyr) was 0%.
`Cc1nn(C)c(F)c1C(=O)Nc1ccccc1C(C)CC(C)C` (stereo not shown) [Penflufen, penflufen, reference compound] gave an Average control % ([2]; Table 9.1, solo application Penflufen, use rate 2500 ppm) of 0%.
Compound `COCC(=O)N(c1c(C)cccc1C)C(C)C(=O)OC` (stereo not shown) [Metalaxyl, metalaxyl, reference compound] has an Average control % ([1]; Table 7.2, solo application Metalaxyl) of 0% and an Average control % ([2]; Table 9.2, solo application Metalaxyl, use rate 500 ppm) of 0%.
Compound `O=C(NC(=O)c1c(F)cccc1F)Nc1ccc(Oc2ccc(C(F)(F)F)cc2Cl)cc1F` [Flufenoxuron, flufenoxuron, reference compound] has an Average control % ([3]; Table 3.1, solo application Flufenoxuron, use rate 0.8 ppm) of 0% and an Average control % ([4]; Table 2.2, solo application Flufenoxuron, use rate 0.8 ppm) of 0%.
In the case of `CC1(C)C(C=C(Cl)Cl)C1C(=O)OC(C#N)c1cccc(Oc2ccccc2)c1` (stereo not drawn) [Alpha-Cypermethrin, alpha-cypermethrin, reference compound], the Average control % ([5]; Table 4.2, solo application Alpha-Cypermethrin, use rate 2 ppm) was 50% and the Average control % ([4]; Table 2.6, solo application Alpha-Cypermethrin, use rate 10 ppm) was 0%.
In the case of spinosad [reference compound], the Average control % ([4]; Table 2.1, solo application Spinosad, use rate 4 ppm) was 0%.
Compound `C[n+]1c([O-])c(-c2ccccc2)c(=O)n2c1SC[C@H]2c1cnc(Cl)s1` [I-S-1, S-3-(2-chlorothiazol-5-yl)-8-methyl-7-oxo-6-phenyl-2,3-dihydrothiazolo[3,2-a] pyrimidin-8-ium-5-olate] has a mortality at 1 ppm [6] of 0%, a mortality at 1 ppm [7] of 0% and a mortality at 10 ppm [8] of 0%. It also gave a mortality at 1 ppm [9] of 0%.
In the case of `C[C@@H](NC(=O)C(C#N)C(C)(C)C)c1ccc(Cl)cc1Cl` (stereo partly shown) [Dicyclomet, dicyclomet, reference compound], the Average control % ([10]; Table 8.2, solo application Dicyclomet, use rate 2500 ppm) was 0%.
`O=C1CCc2cccc3c2N1CC3` [Pyroquilon, pyroquilon, reference compound] gave an Average control % ([11]; Table 10.2, solo application Pyroquilon) of 0%.
`CC(C)N1C(=O)N(c2ccccc2)CS/C1=N\C(C)(C)C` [Buprofezin, buprofezin, reference compound] showed an Average control % ([12]; Table 11.2, solo application Buprofezin) of 50%.
For `COC(=O)N(C(=O)N1CO[C@@]2(C(=O)OC)Cc3cc(Cl)ccc3C2=N1)c1ccc(OC(F)(F)F)cc1` [Indoxacarb, indoxacarb, reference compound], the Average control % ([4]; Table 2.4, solo application Indoxacarb, use rate 2 ppm) was 0%.
Work on `C[Si](C)(C)CC(O)(Cn1cncn1)c1ccc(F)cc1` (stereo not shown) [Simeconazol, simeconazole, reference compound] yielded an Average control % ([12]; Table 11.1, solo application Simeconazol) of 0%.
With `CON=CNC(=O)c1ccc(C2=NOC(c3cc(Cl)cc(Cl)c3)(C(F)(F)F)C2)cc1C` (stereo not shown) [Fluxametamide, fluxametamide, reference compound] the Average control % ([3]; Table 3.3, solo application Fluxametamide, use rate 0.4 ppm) was 25%.
In the case of `N#CCNC(=O)c1cnccc1C(F)(F)F` [Flonicamid, flonicamid, reference compound], the Average control % ([4]; Table 2.5, solo application Flonicamid, use rate 2 ppm) was 0%.
Compound `C=CCOC1=NS(=O)(=O)c2ccccc21` [Probenazole, probenazole, reference compound] has an Average control % ([10]; Table 8.1, solo application Probenazole, use rate 500 ppm) of 0% and an Average control % ([11]; Table 10.1, solo application Probenazole) of 0%.
`O=c1c(-c2cccc(C(F)(F)F)c2)c([O-])[n+](Cc2cncnc2)c2ccccn12` [Triflumezopyrim, triflumezopyrim, reference compound] was tested, and the Average control % ([4]; Table 2.3, solo application Triflumezopyrim, use rate 0.4 ppm) was 0%.
In the case of `CC1=NNC(=O)N(/N=C/c2cccnc2)C1` [Pymetrozine, pymetrozine, reference compound], the Average control % ([5]; Table 4.1, solo application Pymetrozine, use rate 10 ppm) was 0% and the Average control % [13] was 26%.
